The values below come from US8586550B2, “Thiazole derivatives as SGLT2 inhibitors and pharmaceutical composition comprising same” (Green Cross Corporation, priority 2010, dated 2013).

The experiment has as its target T1, Human SGLT2 (hSGLT2) (Homo sapiens, UniProt P31639).
T1 construct: expressed in transfected cells
T1 sequence (P31639 1-672): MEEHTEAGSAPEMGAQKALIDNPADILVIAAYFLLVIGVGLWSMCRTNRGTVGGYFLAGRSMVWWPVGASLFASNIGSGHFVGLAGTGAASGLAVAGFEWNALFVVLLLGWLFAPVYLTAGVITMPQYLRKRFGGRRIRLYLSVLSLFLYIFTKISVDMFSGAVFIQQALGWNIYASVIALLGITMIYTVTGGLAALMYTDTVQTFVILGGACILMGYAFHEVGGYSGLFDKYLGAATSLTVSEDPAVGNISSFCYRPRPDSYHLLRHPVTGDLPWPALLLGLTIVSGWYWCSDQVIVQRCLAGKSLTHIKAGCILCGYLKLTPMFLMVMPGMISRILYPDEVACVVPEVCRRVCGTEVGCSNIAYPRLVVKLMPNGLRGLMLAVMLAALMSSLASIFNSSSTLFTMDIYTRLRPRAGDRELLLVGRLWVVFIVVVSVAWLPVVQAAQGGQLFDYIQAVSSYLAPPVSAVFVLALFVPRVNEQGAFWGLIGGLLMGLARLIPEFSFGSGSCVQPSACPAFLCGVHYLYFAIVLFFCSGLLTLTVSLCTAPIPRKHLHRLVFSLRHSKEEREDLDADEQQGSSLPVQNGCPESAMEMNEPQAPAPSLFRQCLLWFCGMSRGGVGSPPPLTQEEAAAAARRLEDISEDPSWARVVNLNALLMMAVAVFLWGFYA
Description: Sodium-dependent glucose transport (14C-AMG uptake) assay in CHO cells stably expressing hSGLT2. Format: cell-based. The following applies: CHO cells expressing hSGLT2, 14C-AMG uptake, 37° C. for 2 h; single determinations; read-out: hSGLT2 Inhibitory Activity IC50. The text has this: Cloning and Cell Line Construction for Human SGLT2
Human SGLT2 (hSGLT2) gene was amplified by PCR from cDNA-Human Adult Normal Tissue Kidney (Invitrogen). The hSGLT2 sequence was cloned into pcDNA3.1(+) for mammalian expression and were stably transfected into chinese hamster ovary (CHO) cells. SGLT2-expressing clones were selected based on resistance to G418 antibiotic (Geneticin) and activity in the ^14C-α-methyl-D-glucopyranoside (^14C-AMG) uptake assay.
Inhibitory Effects on Human SGLT2 Activities
For sodium-dependent glucose transport assay, cells expressing hSGLT2 were seeded into a 96-well culture plate at a density of 5×10^4 cells/well in RPMI medium 1640 containing 10% fetal bovine serum. The cells were used 1 day after plating. They were incubated in pretreatment buffer (10 mM HEPES, 5 mM Tris, 140 mM choline chloride, 2 mM KCl, 1 mM CaCl2, and 1 mM MgCl2, pH 7.4) at 37° C. for 10 min. They were then incubated in uptake buffer (10 mM HEPES, 5 mM Tris, 140 mM NaCl, 2 mM KCl, 1 mM CaCl2, 1 mM MgCl2, and 1 mM ^14C-nonlabeled AMG, pH 7.4) containing ^14C-labeled (8 μM) and inhibitor or dimethylsulfoxide (DMSO) vehicle at 37° C. for 2 h. Cells were washed twice with washing buffer (pretreatment buffer containing 10 mM AMG at room temperature) and then the radioactivity was measured using a liquid scintillation counter. IC50 was determined by nonlinear regression analysis using GraphPad PRISM [Katsuno, K. et al. J. Pharmacol. Exp. Ther. 2007, 320, 323-330; Han, S. et al. Deabetes, 2008, 57, 1723-1729].
As for `OC[C@H]1O[C@@H](c2ccc(Br)c(Cc3ncc(-c4ccco4)s3)c2)[C@H](O)[C@@H](O)[C@@H]1O` [Example 46, (2S,3R,4R,5S,6R)-2-(4-Bromo-3-((5-(furan-2-yl)thiazol-2-yl)methyl)phenyl)-6-(hydroxymethyl)-tetrahydro-2H-pyran-3,4,5-triol], the IC50 was found to be 1.89 nM.
The figure for `OC[C@H]1O[C@@H](c2ccc(C(F)(F)F)c(Cc3ncc(-c4ccco4)s3)c2)[C@H](O)[C@@H](O)[C@@H]1O` [Example 4, (2S,3R,4R,5S,6R)-2-(3-((5-(Furan-2-yl)thiazol-2-yl)methyl)-4-(trifluoromethyl)phenyl)-6-(hydroxymethyl)-tetrahydro-2H-pyran-3,4,5-triol] is 9.73 nM; for “(2S,3R,4R,5S,6R)-2-(4-Fluoro-3-((5-(thiazol-3-yl)thiazol-2-yl)methyl)phenyl)-6-(hydroxymethyl)tetrahydro-2H-pyran-3,4,5-triol [Example 43]” it is 7.36 nM; for `CCOC(=O)c1cnc(Cc2cc([C@@H]3O[C@H](CO)[C@@H](O)[C@H](O)[C@H]3O)ccc2Cl)s1` [Example 106, Ethyl 2-(2-chloro-5-((2S,3R,4R,5S,6R)-3,4,5-trihydroxy-6-(hydroxymethyl)-tetrahydro-2H-pyran-2-yl)benzyl)thiazole-5-carboxylate] it is 50.3 nM.
Consider `OC[C@H]1O[C@@H](c2cc(Cc3ncc(-c4ccoc4)s3)c(Cl)cc2F)[C@H](O)[C@@H](O)[C@@H]1O` [Example 54, (2S,3R,4R,5S,6R)-2-(4-Chloro-2-fluoro-5-((5-(furan-3-yl)thiazol-2-yl)methyl)phenyl)-6-(hydroxymethyl)tetrahydro-2H-pyran-3,4,5-triol], for which the IC50 turned out to be 5.35 nM.
The figure for `OC[C@H]1O[C@@H](c2ccc(Cl)c(C3(c4ncc(-c5ccco5)s4)CC3)c2)[C@H](O)[C@@H](O)[C@@H]1O` [Example 3, (2S,3R,4R,5S,6R)-2-(4-Chloro-3-(1-(5-(furan-2-yl)thiazol-2-yl)cyclopropyl)phenyl)-6-(hydroxymethyl)-tetrahydro-2H-pyran-3,4,5-triol] is 47.1 nM.
Consider `COc1cc(Cl)c(Cc2ncc(-c3ccco3)s2)cc1[C@@H]1O[C@H](CO)[C@@H](O)[C@H](O)[C@H]1O` [Example 69, (2S,3R,4R,5S,6R)-2-(4-Chloro-5-((5-(furan-2-yl)thiazol-2-yl)methyl)-2-methoxyphenyl)-6-(hydroxymethyl)tetrahydro-2H-pyran-3,4,5-triol], for which the IC50 is 2.24 nM.
Regarding `COc1c(Cc2ncc(-c3cccs3)s2)cc([C@@H]2O[C@H](CO)[C@@H](O)[C@H](O)[C@H]2O)c2ccccc12` [Example 96, (2R,3S,4R,5R,6S)-2-(Hydroxymethyl)-6-(4-methoxy-3-((5-(thiophen-2-yl)thiazol-2-yl)methyl)naphthalen-1-yl)-tetrahydro-2H-pyran-3,4,5-triol], the IC50 worked out at 4.94 nM.
For `Cc1ccc([C@@H]2O[C@H](CO)[C@@H](O)[C@H](O)[C@H]2O)cc1Cc1ncc(-c2ccccc2)s1` [Example 35, (2R,3S,4R,5R,6S)-2-(Hydroxymethyl)-6-(4-methyl-3-((5-phenylthiazol-2-yl)methyl)phenyl)tetrahydro-2H-pyran-3,4,5-triol] the value was 4.17 nM; for `C=CCOc1cc(Cl)c(Cc2ncc(-c3ccsc3)s2)cc1[C@@H]1O[C@H](CO)[C@@H](O)[C@H](O)[C@H]1O` [Example 86, (2S,3R,4R,5S,6R)-2-(2-(Allyloxy)-4-chloro-5-((5-(thiophen-3-yl)thiazol-2-yl)methyl)phenyl)-6-(hydroxymethyl)tetrahydro-2H-pyran-3,4,5-triol], 0.934 nM.
For `COc1c(Cc2ncc(-c3ccccc3)s2)cc([C@@H]2O[C@H](CO)[C@@H](O)[C@H](O)[C@H]2O)c2ccccc12` [Example 97, (2R,3S,4R,5R,6S)-2-(Hydroxymethyl)-6-(4-methoxy-3-((5-phenylthiazol-2-yl)methyl)naphthalen-1-yl)-tetrahydro-2H-pyran-3,4,5-triol] the value was 6.77 nM; for `C/C=C(\C)c1cnc(Cc2cc([C@@H]3O[C@H](CO)[C@@H](O)[C@H](O)[C@H]3O)ccc2Cl)s1` [Example 18, (2S,3R,4R,5S,6R,E)-2-(3-((5-(but-2-en-2-yl)thiazol-2-yl)methyl)-4-chlorophenyl)-6-(hydroxymethyl)-tetrahydro-2H-pyran-3,4,5-triol], 4.69 nM; for `COc1cc(Cl)c(Cc2ncc(C3CCCC3)s2)cc1[C@@H]1O[C@H](CO)[C@@H](O)[C@H](O)[C@H]1O` [Example 76, (2S,3R,4R,5S,6R)-2-(4-Chloro-5-((5-cyclopentylthiazol-2-yl)methyl)-2-methoxyphenyl)-6-(hydroxymethyl)tetrahydro-2H-pyran-3,4,5-triol], 9.35 nM.
The figure for `COc1c(Cc2ncc(-c3ccc(F)cc3)s2)cc([C@@H]2O[C@H](CO)[C@@H](O)[C@H](O)[C@H]2O)c2ccccc12` [Example 2, (2S,3R,4R,5S,6R)-2-(3-((5-(4-Fluorophenyl)thiazol-2-yl)methyl)-4-methoxynaphthalen-1-yl)-6-(hydroxymethyl)-tetrahydro-2H-pyran-3,4,5-triol] is 12 nM.
On to `COc1c(Cc2ncc(C3CCCC3)s2)cc([C@@H]2O[C@H](CO)[C@@H](O)[C@H](O)[C@H]2O)c2ccccc12` [Example 101, (2S,3R,4R,5S,6R)-2-(3-((5-Cyclopentylthiazol-2-yl)methyl)-4-methoxynaphthalen-1-yl)-6-(hydroxymethyl)-tetrahydro-2H-pyran-3,4,5-triol], for which the IC50 is 26.8 nM.
For the molecule `OC[C@H]1O[C@@H](c2cc(Cc3ncc(-c4cccs4)s3)c(Cl)cc2F)[C@H](O)[C@@H](O)[C@@H]1O` [Example 55, (2S,3R,4R,5S,6R)-2-(4-Chloro-2-fluoro-5-((5-(thiophen-2-yl)thiazol-2-yl)methyl)phenyl)-6-(hydroxymethyl)tetrahydro-2H-pyran-3,4,5-triol], the IC50 amounted to 3.88 nM.
With `OC[C@H]1O[C@@H](c2cc(Cc3ncc(-c4ccco4)s3)c(Cl)cc2F)[C@H](O)[C@@H](O)[C@@H]1O` [Example 53, (2S,3R,4R,5S,6R)-2-(4-Chloro-2-fluoro-5-((5-(furan-2-yl)thiazol-2-yl)methyl)phenyl)-6-(hydroxymethyl)tetrahydro-2H-pyran-3,4,5-triol], the IC50 was 3.49 nM.
For `CCOC[C@H]1O[C@@H](c2ccc(Cl)c(Cc3ncc(-c4ccco4)s3)c2)[C@H](O)[C@@H](O)[C@@H]1O` [Example 140, (2S,3R,4R,5S,6R)-2-(4-Chloro-3-((5-(furan-2-yl)thiazol-2-yl)methyl)phenyl)-6-(ethoxymethyl)tetrahydro-2H-pyran-3,4,5-triol] the value was 68.7 nM; for `Cc1cnc(Cc2cn([C@@H]3O[C@H](CO)[C@@H](O)[C@H](O)[C@H]3O)c3ccccc23)s1` [Example 132, (2R,3S,4S,5R,6R)-2-(Hydroxymethyl)-6-(3-((5-methylthiazol-2-yl)methyl)-1H-indol-1-yl)tetrahydro-2H-pyran-3,4,5-triol], 162 nM; for `OC[C@H]1O[C@@H](c2cc(Cc3ncc(-c4ccccc4)s3)c(Cl)cc2F)[C@H](O)[C@@H](O)[C@@H]1O` [Example 57, (2S,3R,4R,5S,6R)-2-(4-Chloro-2-fluoro-5-((5-phenylthiazol-2-yl)methyl)phenyl)-6-(hydroxymethyl)tetrahydro-2H-pyran-3,4,5-triol], 4.57 nM.
For “(2S,3R,4R,5S,6R)-2-(4-Chloro-3-((4-phenylthiazol-2-yl)methyl)phenyl)-6-(hydroxymethyl)tetrahydro-2H-pyran-3,4,5-triol [Example 71]” the value was 1.59 nM; for `OC[C@H]1O[C@@H](c2ccc(Cl)c(Cc3cnc(-c4cnccn4)s3)c2)[C@H](O)[C@@H](O)[C@@H]1O` [Example 195], 4.35 nM.
